Series [1] concerns Human immunodeficiency virus 1. The experiment in a line: Antiviral activity against HIV1 infected in human C8166 cells assessed as inhibition of viral-induced cytopathic effect. Type of series: functional, organism-based. The following applies: Human immunodeficiency virus 1, C8166.
Series [2] in a line: Cytotoxicity against human C8166 cells by MTT assay. In kind it is cell-based.

In brackets after ≈: the same amount, converted by molar mass.

One may read the EC50 as the midpoint of the concentration-response curve. One may read the CC50 as the concentration that lowers cell viability or growth by half. Turning to `C[C@@H]1CCC(=O)O[C@@H]2C[C@@]3(C)[C@@H]4[C@@H](O)C[C@H]5C(C)(C)C(=O)CC[C@@]56C[C@@]46C[C@@H](O)[C@]3(C)[C@@H]12` [LANCIFODILACTONE H], the 50% effective concentration (EC50) in series [1] was 16.6 µg/mL (≈ 37.3 µM). This molecule also returned a CC50 in series [2] above 200 µg/mL. The corresponding values for `C/C(=C/CC[C@@H](C)[C@H]1CC[C@@]2(C)[C@@H]3CC[C@@H](C(C)(C)O)[C@@]4(CCC(=O)O)C[C@@]34CC[C@]12C)C(=O)O` [LANCIFOICACID A] are 16.2 µg/mL (≈ 33.1 µM) and 105 µg/mL (≈ 215 µM). For `C=C(C)[C@@H]1CC[C@@H]2[C@]3(CC[C@]4(C)[C@@H]([C@H](C)CC/C=C(/C)C(=O)O)CC[C@@]24C)C[C@]13CCC(=O)O` [NIGRANOIC ACID], the concentration giving a half-maximal response (EC50) in series [1] came out at 10.3 µg/mL (≈ 21.9 µM). This molecule also showed a 50% cytotoxic concentration (CC50) in series [2] of 88 µg/mL (≈ 187 µM). In series [2], `Cc1cn([C@H]2C[C@H](N=[N+]=[N-])[C@@H](CO)O2)c(=O)[nH]c1=O` [ZIDOVUDINE] gave a CC50 above 200 µg/mL.
